Key:
[1] = molecular target: Phosphatidylinositol 4,5-bisphosphate 3-kinase catalytic subunit beta isoform (Homo sapiens, UniProt P42338); assay: Inhibition of PI3Kbeta (unknown origin)
[2] = organism: Homo sapiens; assay: Selectivity index, ratio of IC50 for human PIK3C2B to IC50 for PI3Kbeta (unknown origin)
[3] = molecular target: Phosphatidylinositol 4-phosphate 3-kinase C2 domain-containing subunit beta (Homo sapiens) (UniProt O00750); assay: Inhibition of human PIK3C2B using phosphatidylinositol as substrate at 111 nM after 1 hr by TR-FRET based Adapta universal kinase assay
Chain of Phosphatidylinositol 4-phosphate 3-kinase C2 domain-containing subunit beta (Homo sapiens) (O00750 whole entry, the tested form may be a part): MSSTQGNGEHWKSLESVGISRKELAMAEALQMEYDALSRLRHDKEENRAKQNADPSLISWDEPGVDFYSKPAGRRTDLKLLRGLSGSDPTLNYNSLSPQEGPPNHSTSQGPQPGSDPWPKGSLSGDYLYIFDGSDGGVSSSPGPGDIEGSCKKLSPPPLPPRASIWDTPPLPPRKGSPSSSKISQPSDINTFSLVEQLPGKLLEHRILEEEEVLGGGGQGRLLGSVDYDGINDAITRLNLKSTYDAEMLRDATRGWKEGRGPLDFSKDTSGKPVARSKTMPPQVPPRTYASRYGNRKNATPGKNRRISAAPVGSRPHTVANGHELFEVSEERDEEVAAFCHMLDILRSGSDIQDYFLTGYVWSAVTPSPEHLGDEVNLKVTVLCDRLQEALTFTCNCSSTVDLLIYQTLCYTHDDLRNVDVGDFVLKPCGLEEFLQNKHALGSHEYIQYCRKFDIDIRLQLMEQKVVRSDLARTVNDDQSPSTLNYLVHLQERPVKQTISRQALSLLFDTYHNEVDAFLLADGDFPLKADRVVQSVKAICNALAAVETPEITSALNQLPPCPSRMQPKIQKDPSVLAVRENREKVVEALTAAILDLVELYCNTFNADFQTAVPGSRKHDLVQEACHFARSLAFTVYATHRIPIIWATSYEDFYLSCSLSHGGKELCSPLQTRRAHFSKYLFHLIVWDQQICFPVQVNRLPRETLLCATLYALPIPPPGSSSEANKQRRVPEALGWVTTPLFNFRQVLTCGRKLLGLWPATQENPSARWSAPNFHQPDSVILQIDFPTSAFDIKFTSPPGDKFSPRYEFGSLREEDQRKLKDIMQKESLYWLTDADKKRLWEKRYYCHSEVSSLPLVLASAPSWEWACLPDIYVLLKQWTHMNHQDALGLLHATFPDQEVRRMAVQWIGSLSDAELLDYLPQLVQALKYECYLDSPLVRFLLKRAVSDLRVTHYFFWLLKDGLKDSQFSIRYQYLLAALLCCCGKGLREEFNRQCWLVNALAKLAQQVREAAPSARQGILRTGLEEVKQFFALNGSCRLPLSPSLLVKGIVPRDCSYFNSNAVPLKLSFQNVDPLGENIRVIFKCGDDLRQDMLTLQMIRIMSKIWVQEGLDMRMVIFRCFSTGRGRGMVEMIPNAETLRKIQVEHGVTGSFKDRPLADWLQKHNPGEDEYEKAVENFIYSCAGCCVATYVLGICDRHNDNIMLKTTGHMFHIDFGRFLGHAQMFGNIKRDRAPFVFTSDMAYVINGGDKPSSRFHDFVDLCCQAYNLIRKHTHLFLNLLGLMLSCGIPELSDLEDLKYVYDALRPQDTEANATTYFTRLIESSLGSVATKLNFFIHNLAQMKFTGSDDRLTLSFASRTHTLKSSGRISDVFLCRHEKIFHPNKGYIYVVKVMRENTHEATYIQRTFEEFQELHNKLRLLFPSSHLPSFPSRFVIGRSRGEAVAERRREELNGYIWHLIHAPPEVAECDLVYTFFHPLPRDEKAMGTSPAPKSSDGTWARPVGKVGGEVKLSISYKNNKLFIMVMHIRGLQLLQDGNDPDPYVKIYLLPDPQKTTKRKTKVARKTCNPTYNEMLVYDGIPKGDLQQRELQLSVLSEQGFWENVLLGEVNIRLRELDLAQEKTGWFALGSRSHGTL

[4] = molecular target: T1, Phosphatidylinositol 4-phosphate 3-kinase C2 domain-containing subunit alpha (Homo sapiens, UniProt O00443); assay: Inhibition of human PIK3C2A using phosphatidylinositol as substrate at 3.03 nM after 1 hr by TR-FRET based Adapta universal kinase assay relative to control
T1 sequence (O00443 whole entry, the tested form may be a part): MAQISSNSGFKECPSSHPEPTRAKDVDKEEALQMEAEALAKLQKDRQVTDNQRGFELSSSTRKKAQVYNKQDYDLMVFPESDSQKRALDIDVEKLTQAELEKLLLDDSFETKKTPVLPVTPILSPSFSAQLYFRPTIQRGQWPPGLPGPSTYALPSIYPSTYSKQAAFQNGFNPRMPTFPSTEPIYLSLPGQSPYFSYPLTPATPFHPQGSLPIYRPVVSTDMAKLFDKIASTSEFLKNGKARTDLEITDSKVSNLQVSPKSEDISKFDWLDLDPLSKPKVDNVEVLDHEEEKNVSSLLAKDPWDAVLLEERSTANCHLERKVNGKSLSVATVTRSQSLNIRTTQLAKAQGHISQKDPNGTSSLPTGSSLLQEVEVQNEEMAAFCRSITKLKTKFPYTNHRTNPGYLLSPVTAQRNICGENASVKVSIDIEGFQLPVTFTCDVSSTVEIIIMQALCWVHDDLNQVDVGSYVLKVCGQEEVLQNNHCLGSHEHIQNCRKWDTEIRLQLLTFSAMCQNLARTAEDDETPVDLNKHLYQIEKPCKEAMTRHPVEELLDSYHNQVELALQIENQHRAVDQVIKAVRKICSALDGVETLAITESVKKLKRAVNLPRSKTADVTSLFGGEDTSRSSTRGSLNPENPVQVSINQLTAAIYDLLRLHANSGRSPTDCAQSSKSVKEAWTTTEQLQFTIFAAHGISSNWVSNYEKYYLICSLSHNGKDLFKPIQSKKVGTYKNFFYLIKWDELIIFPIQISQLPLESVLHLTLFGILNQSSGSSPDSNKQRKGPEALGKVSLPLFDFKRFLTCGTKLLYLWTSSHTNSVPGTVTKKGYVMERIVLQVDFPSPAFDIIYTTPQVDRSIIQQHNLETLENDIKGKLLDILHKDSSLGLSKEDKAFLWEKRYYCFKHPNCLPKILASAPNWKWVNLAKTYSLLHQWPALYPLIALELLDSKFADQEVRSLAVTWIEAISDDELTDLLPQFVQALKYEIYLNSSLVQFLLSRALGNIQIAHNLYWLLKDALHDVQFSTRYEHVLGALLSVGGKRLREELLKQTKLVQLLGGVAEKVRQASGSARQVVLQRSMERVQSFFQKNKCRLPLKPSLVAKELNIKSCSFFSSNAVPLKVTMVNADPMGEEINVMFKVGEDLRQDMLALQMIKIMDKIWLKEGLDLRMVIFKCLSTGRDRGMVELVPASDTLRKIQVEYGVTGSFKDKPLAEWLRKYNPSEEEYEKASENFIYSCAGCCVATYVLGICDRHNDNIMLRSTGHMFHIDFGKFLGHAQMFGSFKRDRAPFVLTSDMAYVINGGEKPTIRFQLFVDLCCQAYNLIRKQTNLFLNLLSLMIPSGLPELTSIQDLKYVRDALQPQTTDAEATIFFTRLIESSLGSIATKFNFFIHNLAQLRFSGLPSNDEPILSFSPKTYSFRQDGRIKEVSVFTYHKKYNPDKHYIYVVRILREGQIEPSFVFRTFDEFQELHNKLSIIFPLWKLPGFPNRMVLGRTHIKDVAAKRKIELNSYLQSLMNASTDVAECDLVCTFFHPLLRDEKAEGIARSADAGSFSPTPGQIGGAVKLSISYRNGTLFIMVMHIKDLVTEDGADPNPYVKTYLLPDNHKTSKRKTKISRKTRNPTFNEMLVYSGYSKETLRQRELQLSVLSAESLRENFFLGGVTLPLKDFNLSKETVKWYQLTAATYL

[5] = molecular target: T1, Phosphatidylinositol 4-phosphate 3-kinase C2 domain-containing subunit alpha; assay: Inhibition of human PIK3C2A using phosphatidylinositol as substrate at 27.3 nM after 1 hr by TR-FRET based Adapta universal kinase assay relative to control
[6] = molecular target: T1, Phosphatidylinositol 4-phosphate 3-kinase C2 domain-containing subunit alpha; assay: Inhibition of human PIK3C2A using phosphatidylinositol as substrate at 20000 nM after 1 hr by TR-FRET based Adapta universal kinase assay relative to control
[7] = molecular target: Phosphatidylinositol 4-phosphate 3-kinase C2 domain-containing subunit beta (Homo sapiens) (UniProt O00750); assay: Inhibition of human PIK3C2B using phosphatidylinositol as substrate at 1.37 nM after 1 hr by TR-FRET based Adapta universal kinase assay
[8] = molecular target: T1, Phosphatidylinositol 4-phosphate 3-kinase C2 domain-containing subunit alpha; assay: Inhibition of human PIK3C2A using phosphatidylinositol as substrate at 9.1 nM after 1 hr by TR-FRET based Adapta universal kinase assay relative to control
[9] = molecular target: Phosphatidylinositol 4-phosphate 3-kinase C2 domain-containing subunit beta (Homo sapiens) (UniProt O00750); assay: Inhibition of human PIK3C2B using phosphatidylinositol as substrate at 1000 nM after 1 hr by TR-FRET based Adapta universal kinase assay
[10] = molecular target: Phosphatidylinositol 4-phosphate 3-kinase C2 domain-containing subunit beta (Homo sapiens) (UniProt O00750); assay: Inhibition of human PIK3C2B using phosphatidylinositol as substrate at 12.3 nM after 1 hr by TR-FRET based Adapta universal kinase assay
[11] = molecular target: T1, Phosphatidylinositol 4-phosphate 3-kinase C2 domain-containing subunit alpha; assay: Inhibition of human PIK3C2A using phosphatidylinositol as substrate at 247 nM after 1 hr by TR-FRET based Adapta universal kinase assay relative to control
[12] = molecular target: Phosphatidylinositol 4-phosphate 3-kinase C2 domain-containing subunit beta (Homo sapiens) (UniProt O00750); assay: Inhibition of human PIK3C2B using phosphatidylinositol as substrate at 0.051 nM after 1 hr by TR-FRET based Adapta universal kinase assay
[13] = molecular target: Phosphatidylinositol 4-phosphate 3-kinase C2 domain-containing subunit beta (Homo sapiens) (UniProt O00750); assay: Inhibition of human PIK3C2B using phosphatidylinositol as substrate at 0.46 nM after 1 hr by TR-FRET based Adapta universal kinase assay
[14] = molecular target: T1, Phosphatidylinositol 4-phosphate 3-kinase C2 domain-containing subunit alpha; assay: Inhibition of human PIK3C2A using phosphatidylinositol as substrate and 10 uM ATP after 1 hr by TR-FRET based Adapta universal kinase assay
[15] = molecular target: T1, Phosphatidylinositol 4-phosphate 3-kinase C2 domain-containing subunit alpha; assay: Inhibition of human PIK3C2A using phosphatidylinositol as substrate at 82 nM after 1 hr by TR-FRET based Adapta universal kinase assay relative to control
[16] = molecular target: T1, Phosphatidylinositol 4-phosphate 3-kinase C2 domain-containing subunit alpha; assay: Inhibition of human PIK3C2A using phosphatidylinositol as substrate at 2222 nM after 1 hr by TR-FRET based Adapta universal kinase assay relative to control
[17] = molecular target: Phosphatidylinositol 4-phosphate 3-kinase C2 domain-containing subunit beta (Homo sapiens) (UniProt O00750); assay: Inhibition of human PIK3C2B using phosphatidylinositol as substrate at 4.1 nM after 1 hr by TR-FRET based Adapta universal kinase assay
[18] = molecular target: T1, Phosphatidylinositol 4-phosphate 3-kinase C2 domain-containing subunit alpha; assay: Inhibition of human PIK3C2A using phosphatidylinositol as substrate at 741 nM after 1 hr by TR-FRET based Adapta universal kinase assay relative to control
[19] = molecular target: Phosphatidylinositol 4-phosphate 3-kinase C2 domain-containing subunit beta (Homo sapiens) (UniProt O00750); assay: Inhibition of human PIK3C2B using phosphatidylinositol as substrate at 333 nM after 1 hr by TR-FRET based Adapta universal kinase assay
[20] = molecular target: Phosphatidylinositol 4-phosphate 3-kinase C2 domain-containing subunit beta (Homo sapiens) (UniProt O00750); assay: Inhibition of human PIK3C2B using phosphatidylinositol as substrate at 0.153 nM after 1 hr by TR-FRET based Adapta universal kinase assay
[21] = molecular target: Phosphatidylinositol 4-phosphate 3-kinase C2 domain-containing subunit beta (Homo sapiens) (UniProt O00750); assay: Inhibition of human PIK3C2B using phosphatidylinositol as substrate at 37 nM after 1 hr by TR-FRET based Adapta universal kinase assay
[22] = organism: Homo sapiens; assay: Selectivity index, ratio of IC50 for human PIK3C2A to IC50 for human PIK3C2B
[23] = molecular target: T1, Phosphatidylinositol 4-phosphate 3-kinase C2 domain-containing subunit alpha; assay: Inhibition of human PIK3C2A using phosphatidylinositol as substrate at 6667 nM after 1 hr by TR-FRET based Adapta universal kinase assay relative to control

Chain of Phosphatidylinositol 4,5-bisphosphate 3-kinase catalytic subunit beta isoform (P42338 whole entry, canonical isoform): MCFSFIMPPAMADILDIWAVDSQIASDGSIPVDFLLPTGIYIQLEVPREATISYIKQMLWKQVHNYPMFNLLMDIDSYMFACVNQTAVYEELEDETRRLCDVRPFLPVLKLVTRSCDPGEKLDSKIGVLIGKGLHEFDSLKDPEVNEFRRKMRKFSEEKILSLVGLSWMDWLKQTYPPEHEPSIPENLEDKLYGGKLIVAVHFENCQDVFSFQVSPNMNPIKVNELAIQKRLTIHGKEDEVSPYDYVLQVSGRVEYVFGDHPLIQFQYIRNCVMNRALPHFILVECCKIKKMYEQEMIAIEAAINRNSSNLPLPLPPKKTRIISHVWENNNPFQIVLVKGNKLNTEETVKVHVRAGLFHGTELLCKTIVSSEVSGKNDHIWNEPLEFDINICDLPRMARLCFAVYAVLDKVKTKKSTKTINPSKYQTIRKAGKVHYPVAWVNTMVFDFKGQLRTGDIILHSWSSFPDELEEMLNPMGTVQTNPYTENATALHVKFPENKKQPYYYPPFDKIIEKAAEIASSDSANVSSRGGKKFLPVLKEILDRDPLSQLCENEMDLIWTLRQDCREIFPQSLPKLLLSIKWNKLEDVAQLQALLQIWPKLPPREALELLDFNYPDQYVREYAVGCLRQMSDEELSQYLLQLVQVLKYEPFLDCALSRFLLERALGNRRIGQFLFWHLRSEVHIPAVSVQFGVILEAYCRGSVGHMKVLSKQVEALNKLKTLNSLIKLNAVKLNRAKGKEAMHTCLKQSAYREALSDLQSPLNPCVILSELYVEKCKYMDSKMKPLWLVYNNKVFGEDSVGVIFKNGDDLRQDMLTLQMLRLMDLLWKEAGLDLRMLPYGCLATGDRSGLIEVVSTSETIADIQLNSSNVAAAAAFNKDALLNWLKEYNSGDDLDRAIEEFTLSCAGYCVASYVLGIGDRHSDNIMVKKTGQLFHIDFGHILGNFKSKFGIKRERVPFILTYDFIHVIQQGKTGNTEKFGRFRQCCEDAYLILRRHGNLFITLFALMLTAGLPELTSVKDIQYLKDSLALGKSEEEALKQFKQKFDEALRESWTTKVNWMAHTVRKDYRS

Cc1c(Cn2c(C)nc(=O)c3sc(N4CCOCC4)nc32)cccc1C(F)(F)F
IC50 [1]: 0.016 µM | Ratio IC50 [2]: 6

CN(C)C(=O)c1ccc2c(c1)c(C[C@H]1COCCN1c1nc3c(s1)C(=O)NC(C)(C)C3)cn2C
inhibition [3]: 90% | inhibition [4]: -3% | inhibition [5]: -4% | inhibition [6]: 78% | inhibition [7]: 21% | inhibition [8]: -3% | inhibition [9]: 93% | inhibition [10]: 49% | inhibition [11]: 6% | inhibition [12]: 16% | inhibition [13]: 10% | IC50 [14]: 9.57 µM | inhibition [15]: 0% | inhibition [16]: 36% | inhibition [17]: 27% | inhibition [18]: 17% | inhibition [19]: 93% | inhibition [20]: -3% | inhibition [21]: 74% | Ratio IC50 [22]: 449 | inhibition [23]: 46%

From ChEMBL document CHEMBL4806966, “Methods for treating centronuclear myopathy” (2020)
